These results are taken from patent US11952582B2, “Herbicide-resistance gene and application thereof in plant breeding” (priority 2017, dated 2024).

Assay [1] deals with GmHPPD, HST, HPT, MPQMT and TC gene expression in soybean seedlings. In words: qPCR of HPPD and tocopherol biosynthesis genes in soybean after herbicide treatment. It is filed as in vivo. The settings on record: 20 μM, 12 h. The procedure: 4 week-old T1 generation seedlings of WT, OE GmHPPD and OE PaHPPD-SDM were used as materials to set up a treatment group and a control group, respectively, wherein the treatment group was continuously cultured in ½ MS liquid medium containing 20 μM mesotrione for 12 h. The total RNA of related materials was extracted using Super Fast Plant RNA Extraction Kit (Beijing Huayueyang Biological Technology Co., Ltd., China). The concentration of RNA samples was measured using NanoDrop ND1000 (Thermo Scientific, USA). RNA samples with an absorbance ratio (at wavelengths of 260/280 nm and 260/230 nm) of approximately 2.0 were selected. The total RNA (1,000 ng) was then used for synthesis of cDNA for reverse transcription using a cDNA synthesis kit (One-step Removal of Transcript gDNA and cDNA Synthesis Super Kit, TransGen).
As for quantitative reverse transcription PCR analysis, 3.0 μL cDNA was used as a template in a 20 μL reaction system, and gene-specific primers such as qGmHPPD F and qGmHPPD R were used for GmHPPD gene, qGmHST F and qGmHST R were used for […] gene (alkapton lycopene transferase gene), qGmHPT F and qGmHPT R were used for GmHPT or VTE2 genes, GmMPQMT F and MPQMT R were used for GmMPQMT methyl transferase genes (also known as VTE3), GmTC F and GmTC R were used for GmTC genes (also known as VTE1, tocopherol cyclase gene). These VTE (1, 2 and 3) genes were selected because they encode the key enzymes involved in tocopherol biosynthesis. Three technical repetitions were performed on the Bio-Rad CFX96 real-time system. REST software was used for statistical analysis.
On the technique in general: In qPCR the cycle at which signal appears reflects the starting amount.

The subject of assay [2] is WT and T0 OE SDM rice leaves. Description: Oxidative stress indexes of rice leaves (NBT, DAB staining). It is filed as in vivo. The settings on record: 1 week; for O2 and H2O2 accumulation in leaves (NBT, DAB): 200 μM. The procedure: Herbicides cause the production of reactive oxygen species (ROS), leading to cell death. In order to determine the oxidation state of rice, leaves of wild-type and TO-generation OE SDM rice which were sprayed with 200 μM mesotrione (prepared with 0.1% Tween-20) and sprayed with control 0.1% Tween-20 were collected, and stained with nitroblue tetrazolium (NBT) and 3,3-diaminobenzidine (DAB), respectively, to analyze the accumulation of superoxide (O2^−) and hydrogen peroxide (H2O2).
At the end of the herbicide treatment, leaves of 4 week-old rice (normal growth for 3 weeks and herbicide spray treatment for 1 week) were placed in a 3.5 mg mL^−1 nitroblue tetrazolium (N6876, Sigma-Aldrich) staining solution (potassium phosphate buffer containing 10 mM NaN3), soaked in vacuum, and shaked on a shaker overnight. The NBT-stained plants were destained with a mixed solution of acetic acid:glycerol:ethanol=1:1:3 (v/v/v) at 100° C. for 5 min, and then reserved in a mixed solution of glycerol:ethanol=1:4 (v/v).
Rice seedling leaves were soaked in DAB staining solution for 2 min under vacuum, and then placed in a shaker for 7-8 h. The DAB-stained plants were destained with a mixed solution of acetic acid:glycerol:ethanol=1:1:3 (v/v/v) at 100° C. for 5 min, and then reserved in a mixed solution of glycerol:ethanol=1:4 (v/v).

Take `CS(=O)(=O)c1ccc(C(=O)C2C(=O)CCCC2=O)c([N+](=O)[O-])c1` [mesotrione]: in assay [1] (OE GmHPPD T1 line), the “expression levels of GmHPPD and MPQMT genes compared with control” value is “decreased”; the “expression levels of HST, HPT and TC genes compared with control” value is “increased”. Besides, in assay [1] (OE PaHPPD-SDM T1 line), the “expression levels of GmHPPD and HPT genes compared with control” value is given as “up-regulated”; the “expression levels of HST, MPQMT and TC genes compared with control” value is listed as “almost unchanged”. Also, in assay [1] (wild-type William 82), the “expression of GmHPPD, HST, HPT, MPQMT and TC genes compared with control” value is given as “significantly reduced”. Further, the “contents of superoxide, H2O2 and MDA in WT rice leaves compared with OE SDM rice leaves” value in assay [2] (200 μM spray) was “significantly higher”. The “O2 and H2O2 accumulation in leaves (NBT, DAB)” value in assay [2] (OE SDM rice) was “little”. Further, the “O2 and H2O2 accumulation in leaves (NBT, DAB)” value in assay [2] (WT rice) is reported as “large number”.
